Legend:
Format in all cases: in vivo
[1] = Pharmacokinetics and brain penetration in Abcb1a/b;Abcg2-/- mice; settings: for Plasma AUC, Abcb1a/b;Abcg2-/- vs WT mice: 10 mg/kg
Description: (§1) The pharmacokinetics of NTRC 0066-0 were analyzed in wild-type (WT), Abcb1a/b^−/−, Abcg2^−/−, Abcb1a/b^−/−;Abcg2^−/− and Abcb1a/b^−/−;Abcg2^−/−;Abcc4^−/− FVB mice. All knockout mice strains have been developed at the Netherlands Cancer Institute. For i.v. administration, NTRC0066-0 was formulated in DMSO: Cremophor EL: saline (1:1:8 v/v) and injected at a dose of 5 mg/kg. For i.p and oral administration, NTRC0066-0 was administered at 5, 10 or 20 mg/kg as indicated. Serial blood sampling was done by tail vein bleeding at specific time points. At terminal time points, blood was drawn by cardiac puncture followed by tissue collection. Plasma was obtained from whole blood by centrifugation (5 min, 5,000 rpm, 4 °C) and tissues were weighed and homogenized using a FastPrep®-24 (MP-Biomedicals, NY) in 1% (w/v) bovine serum albumin (Sigma-Aldrich) in water.
(§2) NTRC 0066-0 was extracted from in vitro and in vivo samples using liquid–liquid extraction with diethyl ether. Another MPS-1 inhibitor, Compound 5 (Cpd-5), was added to the samples as an internal standard. The dried organic phase was reconstituted in 30% methanol in water (v/v). Samples were measured using an LC-MS/MS system comprising an UltiMate 3000 LC Systems (Dionex, Sunnyvale, CA) and an API 4000 mass spectrometer (Sciex, Framingham, MA). Samples were injected on to a Securityguard C18 pre-column (Phenomenex, Utrecht, The Netherlands) connected to a ZORBAX Extend-C18 column (Agilent, Santa Clara, CA). Elution was done at a flow rate of 0.2 mL/min using a 5 min gradient from 20% to 95% B (mobile phase A was 0.1% HCOOH in water (v/v) and mobile phase B was methanol). 95% B was maintained for 3 min followed by re-equilibration at 20% B. Multiple reaction monitoring parameters were 566.2/391.4 (NTRC0066-0) and 581.6/397.0 (internal standard). Analyst® 1.6.2 software (Sciex) was used for system control and data analysis.
(§3) PK solver was used to determine pharmacokinetic parameters. The standard error of the oral bioavailability was calculated using the formula below: […]

MRP4 = molecular target: T1, MRP4 (Mus musculus, UniProt E9Q236); test: Brain penetration in Abcb1a/b;Abcg2;Abcc4-/- mice; settings: 1 h after 5 mg/kg i.v.
T1 construct: Abcb1a/b; from tissue; host or cells: blood-brain barrier / brain of FVB mice (Abcb1a/b;Abcg2;Abcc4-/- versus other strains)
T1 sequence (E9Q236 1-1325): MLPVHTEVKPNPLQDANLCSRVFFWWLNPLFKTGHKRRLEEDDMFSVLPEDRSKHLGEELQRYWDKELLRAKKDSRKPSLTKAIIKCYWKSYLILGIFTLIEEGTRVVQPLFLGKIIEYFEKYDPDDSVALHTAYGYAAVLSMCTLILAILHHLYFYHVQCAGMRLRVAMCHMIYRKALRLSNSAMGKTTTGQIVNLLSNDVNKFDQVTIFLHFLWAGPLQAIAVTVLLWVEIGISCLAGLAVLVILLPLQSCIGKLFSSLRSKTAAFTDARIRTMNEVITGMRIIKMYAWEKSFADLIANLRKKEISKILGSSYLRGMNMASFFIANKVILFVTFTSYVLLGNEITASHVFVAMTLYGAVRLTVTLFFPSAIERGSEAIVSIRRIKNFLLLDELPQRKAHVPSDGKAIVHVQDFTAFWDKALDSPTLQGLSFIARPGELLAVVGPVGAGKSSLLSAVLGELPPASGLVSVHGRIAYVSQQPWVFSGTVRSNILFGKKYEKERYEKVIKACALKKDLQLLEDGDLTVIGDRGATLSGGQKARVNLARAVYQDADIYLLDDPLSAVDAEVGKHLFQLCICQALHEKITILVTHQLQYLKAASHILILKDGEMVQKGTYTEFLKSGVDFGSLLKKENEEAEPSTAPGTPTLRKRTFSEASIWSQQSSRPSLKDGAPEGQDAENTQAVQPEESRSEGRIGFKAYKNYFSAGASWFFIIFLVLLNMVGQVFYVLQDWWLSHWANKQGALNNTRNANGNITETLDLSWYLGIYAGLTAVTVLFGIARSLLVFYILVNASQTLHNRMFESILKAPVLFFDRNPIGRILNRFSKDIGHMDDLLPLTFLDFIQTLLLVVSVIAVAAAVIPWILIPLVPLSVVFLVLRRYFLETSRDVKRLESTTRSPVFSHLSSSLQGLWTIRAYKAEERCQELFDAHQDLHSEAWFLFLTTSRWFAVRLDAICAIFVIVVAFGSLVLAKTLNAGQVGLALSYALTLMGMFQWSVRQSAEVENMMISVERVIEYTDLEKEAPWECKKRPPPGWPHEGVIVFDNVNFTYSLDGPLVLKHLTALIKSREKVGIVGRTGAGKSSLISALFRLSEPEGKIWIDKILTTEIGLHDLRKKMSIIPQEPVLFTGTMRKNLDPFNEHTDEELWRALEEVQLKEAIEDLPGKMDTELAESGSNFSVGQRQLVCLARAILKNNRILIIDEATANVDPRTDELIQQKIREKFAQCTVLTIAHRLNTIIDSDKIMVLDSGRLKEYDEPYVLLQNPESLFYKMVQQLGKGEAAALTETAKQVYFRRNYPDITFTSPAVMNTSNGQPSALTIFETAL
Description: as §1
NTRC 0066-0 was extracted from in vitro and in vivo samples using liquid–liquid extraction with diethyl ether. Another MPS-1 inhibitor, Compound 5 (Cpd-5), was added to the samples as an internal standard. The dried organic phase was reconstituted in 30% methanol in water (v/v). Samples were measured using an LC-MS/MS system comprising an UltiMate 3000 LC Systems (Dionex, Sunnyvale, CA) and an API 4000 mass spectrometer (Sciex, Framingham, MA). […]

[2] = Pharmacokinetics and brain penetration in wild-type FVB mice
Description: as §1, §2, §3

[3] = Abcb1a/b;Abcg2-/-, i.p. 10 mg/kg
[4] = Abcb1a/b;Abcg2-/-, p.o. 10 mg/kg

With `CCc1cccc(CC)c1NC(=O)c1ccn2c1CCc1cnc(Nc3ccc(N4CCN(C)CC4)cc3OC)nc1-2` [NTRC 0066-0] the “Lowest plasma trough concentration” value ([1]; 5 mg/kg p.o. morning + 10 mg/kg p.o. about 8 h later, 7 days (5/10 mg/kg b.i.d.x7d)) was “above 20 nM”, the “Brain concentration vs threshold level of in vitro efficacy” value ([1]; 1, 4, 8 and 24 h after 20 mg/kg p.o.) was “remained well above the threshold level of in vitro efficacy” and the “Concentration at 24 h, Abcb1a/b;Abcg2-/- vs WT mice” value ([1]; 24 h after 10 mg/kg) was “about 5 fold”. The Plasma concentration ([1]; 24 h after 20 mg/kg p.o.) was 0.006 µM, the “Brain penetration (brain vs plasma)” value ([1]; Abcb1a/b;Abcg2-/- mice) was 20 fold and the Brain-plasma ratio ([1]; Abcb1a/b;Abcg2-/- mice) was “above 20”. For the same compound, the “Oral bioavailability (relative to i.p.)” value ([1]; Abcb1a/b;Abcg2-/- mice) was “about 50%”, the “Brain concentration compared to Abcb1a/b-/- mice” value ([1]; Abcb1a/b;Abcg2-/- mice, 1 h after 5 mg/kg i.v.) was “did not display further increased” and the Brain-to-plasma ratio ([1]; Abcb1a/b;Abcg2-/- mice, 24 h after 10 mg/kg p.o. or i.p.) was “approximately 20”. For the same compound, the Cmax [1, 3] was 1.7 ± 0.16 µM, the MRT [1, 3] was 4.3 ± 0.4 h and the t1/2 [1, 3] was 3.4 ± 0.4 h. The tmax [1, 3] was 0.8 ± 0.3 h, the “Plasma AUCi.p.” value ([1]; Abcb1a/b;Abcg2-/-, i.p. 10 mg/kg, 0-∞) was 11,000 ± 2200 nM.h and the Cmax [1, 4] was 0.55 ± 0.052 µM. The MRT [1, 4] was 5.2 ± 0.5 h, the t1/2 [1, 4] was 3.6 ± 0.2 h and the tmax [1, 4] was 3.3 ± 1.5 h. The “F (bioavailability)” value ([1]; Abcb1a/b;Abcg2-/-, p.o. 10 mg/kg relative to i.p.) was 43 ± 11%, the “Plasma AUCp.o.” value ([1]; Abcb1a/b;Abcg2-/-, p.o. 10 mg/kg, 0-∞) was 4700 ± 710 nM·h and the “Plasma AUC, Abcb1a/b;Abcg2-/- vs WT mice” value ([1]; after i.p. dosing) was “about 4 fold”. The “Plasma AUC, Abcb1a/b;Abcg2-/- vs WT mice” value ([1]; after oral dosing) was about 3 fold, the “Brain concentration compared to Abcb1a/b-/- mice” value (MRP4) was “did not display further increased” and the “Oral bioavailability (relative to i.p.)” value ([2]; WT mice) was “about 50%”. The Brain-plasma ratio ([2]; WT mice, 1 h after 5 mg/kg i.v.) was “approximately 4”, the Brain-to-plasma ratio ([2]; WT mice, 24 h after 10 mg/kg p.o. or i.p.) was “approximately 20” and the Cmax ([2]; WT, i.p. 10 mg/kg) was 0.78 ± 0.13 µM. The MRT ([2]; WT, i.p. 10 mg/kg) was 3.2 ± 0.4 h, the t1/2 ([2]; WT, i.p. 10 mg/kg) was 2.5 ± 0.2 h and the tmax ([2]; WT, i.p. 10 mg/kg) was 0.5 ± 0.3 h. For the same compound, the “Plasma AUCi.p.” value ([2]; WT, i.p. 10 mg/kg, 0-∞) was 2800 ± 450 nM·h, the Cmax ([2]; WT, p.o. 10 mg/kg) was 0.18 ± 0.0067 µM and the MRT ([2]; WT, p.o. 10 mg/kg) was 4.7 ± 0.2 h. For the same compound, the t1/2 ([2]; WT, p.o. 10 mg/kg) was 2.8 ± 0.2 h, the tmax ([2]; WT, p.o. 10 mg/kg) was 1.8 ± 1.5 h and the “F (bioavailability)” value ([2]; WT, p.o. 10 mg/kg relative to i.p.) was 59 ± 11%. For the same compound, the “Plasma AUCp.o.” value ([2]; WT, p.o. 10 mg/kg, 0-∞) was 1700 ± 150 nM·h.

From paper PMC12909347, “Disconnect between in vitro and in vivo efficacy of the MPS1 inhibitor NTRC 0066-0 against glioblastoma” (Cellular Oncology, 2026)
